Source: patent US20040142981A1, “Antibacterial benzoic acid derivatives” (priority 2002, published 2004)
In brackets after ≈: the same amount, converted by molar mass.

System: not given
Assay: not given
Conditions: not given

| melting point | Structure (SMILES) |
| --- | --- |
| 262 to 264 °C | N#Cc1ccc(NC(=O)c2ccc(S(=O)(=O)N3CCc4cc(Cl)ccc43)cc2)c(-c2n[nH]c(=O)o2)c1 [Example 22, 4-[(5-chloro-2,3-dihydro-1H-indol-1-yl)sulfonyl]-N-[4-cyano-2-(5-oxo-4,5-dihydro-1,3,4-oxadiazol-2-yl)phenyl]benzamide] |
| 230 to 232 °C | N#Cc1ccc(NC(=O)c2cccc(S(=O)(=O)N3CCOCC3)c2)c(-c2nnn[nH]2)c1 [Example 20, N-[4-cyano-2-(1H-tetraazol-5-yl)phenyl]-3-(morpholin-4-ylsulfonyl)benzamide] |
| 220 to 223 °C | O=C(Nc1ccc(Br)cc1-c1noc(=O)[nH]1)c1cccc(S(=O)(=O)N2CCOCC2)c1 [Example 19, N-[4-bromo-2-(5-oxo-4,5-dihydro-1,2,4-oxadiazol-3-yl)phenyl]-3-(morpholin-4-ylsulfonyl)benzamide] |
| 185 to 187 °C | O=C(Nc1ccc(Br)cc1-c1noc(=O)[nH]1)c1cccc(Oc2ccccc2)c1 [Example 16, N-[4-Bromo-2-(5-oxo-4,5-dihydro-1,2,4-oxadiazol-3-yl)phenyl]-3-phenoxybenzamide] |

System: SAUR 9218
Assay: MIC by standard agar dilution method
Assay type: cell-based
Conditions: Mueller Hinton agar, incubated overnight at 35° C., lowest concentration that inhibits visible growth
Description: MIC Test Method The in vitro MICs of test compounds were determined by a standard agar dilution method. A stock drug solution of each analog was prepared in the preferred solvent, usually DMSO:H2O (1:3). Serial 2-fold dilutions of each sample are made using 1.0 ml aliquots of sterile distilled water. To each 1.0 ml aliquot of drug was added 9 ml of molten Mueller Hinton agar medium. The drug-supplemented agar was mixed, poured into 15×100 mm petri dishes, and allowed to solidify and dry prior to inoculation. Vials of each of the test organisms are maintained frozen in the vapor phase of a liquid nitrogen freezer. Test cultures are grown overnight at 35° C. on the medium appropriate for the organism. Colonies are harvested with a sterile swab, and cell suspensions are prepared in Trypticase Soy broth (TSB) to equal the turbidity of a 0.5 McFarland standard. A 1:20 dilution of each suspension was made in TSB. The plates containing the drug supplemented agar are inoculated with a 0.001 ml drop of the cell suspension using a Steers replicator, yielding approximately 10^4 to 10^5 cells per spot. The plates are incubated overnight at 35° C. Following incubation the Minimum Inhibitory Concentration (MIC μg/ml), the lowest concentration of drug that inhibits visible growth of the organism, was read and recorded.

| MIC | Structure (SMILES) |
| --- | --- |
| 16 µg/mL (≈ 28.4 µM) | CN(c1ccc(Cl)cc1)S(=O)(=O)c1cccc(C(=O)Nc2ccc(Br)cc2-c2noc(=O)[nH]2)c1 [Example 9, N-[4-Bromo-2-(5-oxo-4,5-dihydro-1,2,4-oxadiazol-3-yl)phenyl]-3-{[(4-chlorophenyl)(methyl)amino]sulfonyl}benzamide] |
| 2 µg/mL (≈ 3.33 µM) | CN(c1ccc(Cl)cc1)S(=O)(=O)c1cccc(C(=O)Nc2ccc(Br)cc2C(=O)NS(C)(=O)=O)c1 [Example 3, N-(4-Bromo-2-{[(methylsulfonyl)amino]carbonyl}phenyl)-3-{[(4-chlorophenyl)(methyl)amino]sulfonyl}benzamide] |
| 2 µg/mL (≈ 3.81 µM) | O=C(Nc1ccc(Br)cc1-c1nnn[nH]1)c1ccc(S(=O)(=O)N2CCc3ccccc32)cc1 [N-[4-bromo-2-(1H-1,2,3,4-tetraazol-5-yl)phenyl]-4-(2,3-dihydro-1H-indol-1-ylsulfonyl)benzamide] |
| 0.5 µg/mL (≈ 0.877 µM) | O=C(Nc1ccc(I)cc1-c1nnn[nH]1)c1cc2cccc(S(=O)(=O)c3ccccc3)c2[nH]1 [Example 24, N-[4-iodo-2-(1H-tetraazol-5-yl)phenyl]-7-(phenylsulfonyl)-1H-indole-2-carboxamide] |
| 32 µg/mL (≈ 61.3 µM) | N#Cc1ccc(NC(=O)c2ccc(S(=O)(=O)N3CCc4cc(Cl)ccc43)cc2)c(-c2n[nH]c(=O)o2)c1 [Example 22, 4-[(5-chloro-2,3-dihydro-1H-indol-1-yl)sulfonyl]-N-[4-cyano-2-(5-oxo-4,5-dihydro-1,3,4-oxadiazol-2-yl)phenyl]benzamide] |
| 2 µg/mL (≈ 3.55 µM) | CN(c1ccc(Cl)cc1)S(=O)(=O)c1ccc(C(=O)Nc2ccc(Br)cc2-c2n[nH]c(=O)o2)cc1 [N-[4-bromo-2-(5-oxo-4,5-dihydro-1,3,4-oxadiazol-2-yl)phenyl]-4-{[4-chloro(methyl)anilino]sulfonyl}benzamide] |
| 16 µg/mL (≈ 28.9 µM) | CN(c1ccc(Cl)cc1)S(=O)(=O)c1csc(C(=O)Nc2ccc(Br)cc2-c2nnn[nH]2)c1 [Example 28, N-[4-Bromo-2-(1H-tetraazol-5-yl)phenyl]-4-{[(4-chlorophenyl)(methyl)amino]sulfonyl}thiophene-2-carboxamide] |
| 16 µg/mL (≈ 29.8 µM) | CN(c1ccc(Cl)cc1)S(=O)(=O)c1coc(C(=O)Nc2ccc(Br)cc2-c2nnn[nH]2)c1 [Example 27] |
| 64 µg/mL (≈ 146 µM) | N#Cc1ccc(NC(=O)c2cccc(S(=O)(=O)N3CCOCC3)c2)c(-c2nnn[nH]2)c1 [Example 20, N-[4-cyano-2-(1H-tetraazol-5-yl)phenyl]-3-(morpholin-4-ylsulfonyl)benzamide] |
| 128 µg/mL (≈ 251 µM) | O=C(Nc1ccc(Br)cc1-c1noc(=O)[nH]1)c1cccc(S(=O)(=O)N2CCOCC2)c1 [Example 19, N-[4-bromo-2-(5-oxo-4,5-dihydro-1,2,4-oxadiazol-3-yl)phenyl]-3-(morpholin-4-ylsulfonyl)benzamide] |
| 16 µg/mL (≈ 28.4 µM) | CN(c1ccc(Cl)cc1)S(=O)(=O)c1ccc(C(=O)Nc2ccc(Br)cc2-c2noc(=O)[nH]2)cc1 [Example 6, N-[4-Bromo-2-(5-oxo-4,5-dihydro-1,2,4-oxadiazol-3-yl)phenyl]-4-{[(4-chlorophenyl)(methyl)amino]sulfonyl}benzamide] |
| 8 µg/mL (≈ 18.4 µM) | CC(C)Sc1ccc(C(=O)Nc2ccc(Br)cc2-c2noc(=O)[nH]2)cn1 [Example 31, N-[4-bromo-2-(5-oxo-4,5-dihydro-1,2,4-oxadiazol-3-yl)phenyl]-6-(isopropylthio)nicotinamide] |
| 16 µg/mL (≈ 27.6 µM) | CN(c1ccc(Cl)cc1)S(=O)(=O)c1ccc(C(=O)Nc2ccc(Br)cc2-c2noc(=S)[nH]2)cc1 [N-[4-bromo-2-(5-thioxo-4,5-dihydro-1,2,4-oxadiazol-3-yl)phenyl]-4-{[4-chloro(methyl)anilino]sulfonyl}benzamide] |
| 4 µg/mL (≈ 7.02 µM) | O=C(Nc1ccc(Br)cc1-c1nc2ccccc2c(=O)[nH]1)c1cccc(S(=O)(=O)N2CCOCC2)c1 [Example 13, N-[4-Bromo-2-(4-oxo-3,4-dihydroquinazolin-2-yl)phenyl]-3-(morpholin-4-ylsulfonyl)benzamide] |
| 8 µg/mL (≈ 14.4 µM) | CN(c1ccc(Cl)cc1)S(=O)(=O)c1ccc(C(=O)Nc2ccc(Br)cc2-c2nnn[nH]2)s1 [Example 29, N-[4-Bromo-2-(1H-tetraazol-5-yl)phenyl]-5-{[(4-chlorophenyl)(methyl)amino]sulfonyl}thiophene-2-carboxamide] |
| 16 µg/mL (≈ 26.4 µM) | O=C(Nc1ccc(Br)cc1C1=Nc2ccccc2S(=O)(=O)N1)c1cccc(S(=O)(=O)N2CCOCC2)c1 [Example 11, N-[4-Bromo-2-(1,1-dioxido-2H-1,2,4-benzothiadiazin-3-yl)phenyl]-3-(morpholin-4-ylsulfonyl)benzamide] |
| 8 µg/mL (≈ 17.2 µM) | O=C(Nc1ccc(Br)cc1-c1noc(=O)[nH]1)c1cccc(OCc2ccccc2)c1 [Example 10, 3-(Benzyloxy)-N-[4-bromo-2-(5-oxo-4,5-dihydro-1,2,4-oxadiazol-3-yl)phenyl]benzamide] |

| MIC | Structure (SMILES) |
| --- | --- |
| 4 µg/mL (≈ 6.29 µM) | O=C(Nc1ccc(Br)cc1-c1nc2ccccc2c(=O)[nH]1)c1cccc(S(=O)(=O)N2CCc3cc(Cl)ccc32)c1 [Example 12, N-[4-Bromo-2-(4-oxo-3,4-dihydroquinazolin-2-yl)phenyl]-3-[(5-chloro-2,3-dihydro-1H-indol-1-yl)sulfonyl]benzamide] |
| 8 µg/mL (≈ 16.6 µM) | O=C(Nc1ccc(Br)cc1-c1noc(=O)[nH]1)c1cccc(SCc2ccccc2)c1 [Example 2, 3-(Benzylthio)-N-[4-bromo-2-(5-oxo-4,5-dihydro-1,2,4-oxadiazol-3-yl)phenyl]benzamide] |
| > 128 µg/mL | O=C(Nc1ccc(Br)cc1-c1n[nH]c(=O)o1)c1ccc(S(=O)(=O)N2CCc3cc(Cl)ccc32)cc1 [N-[4-bromo-2-(5-oxo-4,5-dihydro-1,3,4-oxadiazol-2-yl)phenyl]-4-[(5-chloro-2,3-dihydro-1H-indol-1-yl)sulfonyl]benzamide] |
| 4 µg/mL (≈ 6.9 µM) | CN(c1ccc(Cl)cc1)S(=O)(=O)c1ccc(C(=O)Nc2ccc(Br)cc2-c2n[nH]c(=S)o2)cc1 [Example 8, N-[4-Bromo-2-(5-thioxo-4,5-dihydro-1,3,4-oxadiazol-2-yl)phenyl]-4-{[(4-chlorophenyl)(methyl)amino]sulfonyl}benzamide] |
| 64 µg/mL (≈ 95.2 µM) | O=C(Nc1ccc(Br)cc1C1=Nc2ccccc2S(=O)(=O)N1)c1cccc(S(=O)(=O)N2CCc3cc(Cl)ccc32)c1 [Example 14, N-[4-Bromo-2-(1,1-dioxido-2H-1,2,4-benzothiadiazin-3-yl)phenyl]-3-[(5-chloro-2,3-dihydro-1H-indol-1-yl)sulfonyl]benzamide] |
| 8 µg/mL (≈ 11.8 µM) | Cc1ccc(S(=O)(=O)NC(=O)c2cc(Br)ccc2NC(=O)c2cccc(S(=O)(=O)N(C)c3ccc(Cl)cc3)c2)cc1 [Example 4, N-[4-Bromo-2-({[(4-methylphenyl)sulfonyl]amino}carbonyl)phenyl]-3-{[(4-chlorophenyl)(methyl)amino]sulfonyl}benzamide] |
| 16 µg/mL (≈ 35.4 µM) | O=C(Nc1ccc(Br)cc1-c1noc(=O)[nH]1)c1cccc(Oc2ccccc2)c1 [Example 16, N-[4-Bromo-2-(5-oxo-4,5-dihydro-1,2,4-oxadiazol-3-yl)phenyl]-3-phenoxybenzamide] |
| 8 µg/mL (≈ 13.9 µM) | O=C(Nc1ccc(Br)cc1-c1noc(=O)[nH]1)c1ccc(S(=O)(=O)N2CCc3cc(Cl)ccc32)cc1 [N-[4-bromo-2-(5-oxo-4,5-dihydro-1,2,4-oxadiazol-3-yl)phenyl]-4-[(5-chloro-2,3-dihydro-1H-indol-1-yl)sulfonyl]benzamide] |
| 32 µg/mL (≈ 51 µM) | CN(c1ccc(Cl)cc1)S(=O)(=O)c1ccc(C(=O)Nc2ccc(Br)cc2NS(=O)(=O)C(F)(F)F)cc1 |
| 8 µg/mL (≈ 14.2 µM) | N#Cc1ccc(NC(=O)c2cccc(S(=O)(=O)N3CCc4cc(Cl)ccc43)c2)c(C(=O)Nc2nccs2)c1 [Example 26, 2-({3-[(5-Chloro-2,3-dihydro-1H-indol-1-yl)sulfonyl]benzoyl}amino)-5-cyano-N-(1,3-thiazol-2-yl)benzamide] |
| 32 µg/mL (≈ 76.5 µM) | CC(C)Oc1cccc(C(=O)Nc2ccc(Br)cc2-c2noc(=O)[nH]2)c1 [Example 15, N-[4-Bromo-2-(5-oxo-4,5-dihydro-1,2,4-oxadiazol-3-yl)phenyl]-3-isopropoxybenzamide] |
| 16 µg/mL (≈ 29.6 µM) | O=C(Nc1ccc(Br)cc1-c1noc(=O)[nH]1)c1ccc(S(=O)(=O)N2CCc3ccccc32)cc1 [Example 7, N-[4-Bromo-2-(5-oxo-4,5-dihydro-1,2,4-oxadiazol-3-yl)phenyl]-4-(2,3-dihydro-1H-indol-1-ylsulfonyl)benzamide] |
| 4 µg/mL (≈ 7.14 µM) | O=C(Nc1ccc(Br)cc1-c1nnn[nH]1)c1ccc(S(=O)(=O)N2CCc3cc(Cl)ccc32)cc1 [N-[4-bromo-2-(1H-1,2,3,4-tetraazol-5-yl)phenyl]-4-[(5-chloro-2,3-dihydro-1H-indol-1-yl)sulfonyl]benzamide] |
| 4 µg/mL (≈ 6.95 µM) | O=C(Nc1ccc(Br)cc1-c1noc(=O)[nH]1)c1cccc(S(=O)(=O)N2CCc3cc(Cl)ccc32)c1 [Example 1, N-[4-Bromo-2-(5-oxo-4,5-dihydro-1,2,4-oxadiazol-3-yl)phenyl]-3-[(5-chloro-2,3-dihydro-1H-indol-1-yl)sulfonyl]benzamide] |
| 16 µg/mL (≈ 29.2 µM) | CN(c1ccc(Cl)cc1)S(=O)(=O)c1ccc(C(=O)Nc2ccc(Br)cc2-c2nnn[nH]2)cc1 [Example 5, N-[4-Bromo-2-(1H-tetraazol-5-yl)phenyl]-4-{[(4-chlorophenyl)(methyl)amino]sulfonyl}benzamide] |
| 64 µg/mL (≈ 171 µM) | COc1cccc(C(=O)Nc2ccc(Br)cc2-c2nnn[nH]2)c1 [N-[4-bromo-2-(1H-tetraazol-5-yl)phenyl]-3-methoxybenzamide] |
